Common to all, as to type: in vivo, Catharanthus roseus
The test system of assay [1] is CrDELLA1 and CrDELLA2 transcript levels. The assay is described as follows: Paclobutrazol treatment of etiolated seedlings: DELLA transcript levels by qPCR. As to conditions: 1 μM PAC, dark-grown seedlings, 4 days, vs DMSO mock. The protocol: (§1) Because PAC might disrupt germination, seedlings were first germinated normally without any treatment by incubating them in the dark for 5 days at 27° C. The germinated seeds were then transferred to either media containing 1 μM PAC or media containing an equal volume of DMSO as a mock treatment. These seedlings were kept in the dark for 4 more days before being harvested for gene expression analysis.
Gene expression levels were monitored using quantitative real-time PCR (qRT-PCR) with primers listed in Table 1. mRNA was extracted from liquid nitrogen flash-frozen leaf tissue or seedlings stored at −80° C. […] RNA integrity was assessed using agarose gel electrophoresis, and concentration and purity were quantified with a NanoDrop (ND-1000 Spectrophotometer; ThermoScientific). cDNA was synthesized using either the SuperScript II First-Strand Synthesis System (Invitrogen) or the LunaScript RT SuperMix Kit (New England Biolabs) with up to 2.5 μg of RNA, according to manufacturer's instructions. cDNA was diluted 1:4, and 1 μL was used in a 10 μL reaction with SYBR Green ROX qPCR Master Mix (Qiagen or ABClonal) and 300 nM primers on the MX3000P qPCR instrument (Agilent) using the thermocycler protocol previously described with an extension time of 30 seconds. Ct values for each biological replicate were calculated as the average of two technical replicates. […]
(In general: Quantitative PCR measures a nucleic acid by following its amplification.)

The subject of the next assay is CrLHCB2.2. Description: Paclobutrazol treatment of etiolated seedlings: CrLHCB2.2 expression by qPCR (positive control). The conditions noted are these: 1 μM PAC, dark-grown seedlings, 4 days, vs DMSO mock; normalized to SAND. The protocol: as §1
This is consistent with GA's positive role in growth and served as a good indicator that the PAC was having an effect on the seedlings. As a positive control, expression of CrLHCB2.2 was measured; CrLHCB2.2 is a homologue of the light harvesting complex subunit B 2.2, which was previously shown to be activated by PAC treatment of dark-grown seedlings in A. thaliana.
Gene expression levels were monitored using quantitative real-time PCR (qRT-PCR) with primers listed in Table 1. mRNA was extracted from liquid nitrogen flash-frozen leaf tissue or seedlings stored at −80° C. […] Ct values for each biological replicate were calculated as the average of two technical replicates. Transcript levels were normalized to the housekeeping gene, SAND [76], and fold changes relative to the negative control condition were calculated according to the […]. Amplification efficiency for each primer set was confirmed using Ct values over a range of cDNA dilutions and was 100%±10% for each gene monitored. […]

A further assay deals with C. roseus seedlings. Description: Paclobutrazol treatment of etiolated seedlings: seedling height. The conditions noted are these: 1 μM PAC, dark-grown seedlings, 4 days, vs DMSO mock. The protocol: as §1
Seedlings treated with PAC were photographed and lengths were measured with ImageJ. Statistical significance for all phenotype measurements was analyzed with a two-tailed unpaired T-test.
C. roseus var. Little Bright Eye seeds (NESeeds, 0.8 g) were sterilized by submersion in 4% Plant Preservative Mixture (PPM) for 18 hours in the dark. The PPM was then decanted, and the seeds were spread on full-strength Gamborg's media (3.1 g/L Gamborg's basal salts, 1× Gamborg's vitamins, and 6% micropropagation agar type 1, Phytotechnology Laboratory) inside a sterile Magenta™ Plant Culture Box (Sigma) for germination. […] Seedlings were maintained in the dark at 27° C. for 4 days, and then were harvested by placing 3 whole seedlings in a 2 mL screw cap tube containing ten 3 mm glass beads for each biological replicate, flash-freezing in liquid nitrogen, and storing at −80° C. until ready for RNA extraction and qPCR analysis.

In assay [2] the test system is vindoline pathway gene expression. The assay is described as follows: Paclobutrazol treatment of etiolated seedlings: vindoline pathway gene expression by qPCR. The conditions noted are these: 1 μM PAC, dark-grown seedlings, 4 days, vs DMSO mock. The protocol:
as §1
Gene expression levels were monitored using quantitative real-time PCR (qRT-PCR) with primers listed in Table 1. mRNA was extracted from liquid nitrogen flash-frozen leaf tissue or seedlings stored at −80° C. While still frozen, tissue was crushed by shaking in a Mini-BeadBeater-16 (Biospec) for 15 seconds with ten 3 mm glass beads (Fisher). Afterwards, RNA was extracted with RNAzol-RT (Molecular Research Center) and the Direct-zol RNA Miniprep Plus Kit (Zymo Research) with on-column DNAse treatment to remove genomic DNA. RNA integrity was assessed using agarose gel electrophoresis, and concentration and purity were quantified with a NanoDrop (ND-1000 Spectrophotometer; ThermoScientific). cDNA was synthesized using either the SuperScript II First-Strand Synthesis System (Invitrogen) or the LunaScript RT SuperMix Kit (New England Biolabs) with up to 2.5 μg of RNA, according to manufacturer's instructions. cDNA was diluted 1:4, and 1 μL was used in a 10 μL reaction with SYBR Green ROX qPCR Master Mix (Qiagen or ABClonal) and 300 nM primers on the MX3000P qPCR instrument (Agilent) using the thermocycler protocol previously described with an extension time of 30 seconds. Ct values for each biological replicate were calculated as the average of two technical replicates. Transcript levels were normalized to the housekeeping gene, SAND [76], and fold changes relative to the negative control condition were calculated according to the […]. Amplification efficiency for each primer set was confirmed using Ct values over a range of cDNA dilutions and was 100%±10% for each gene monitored. Specificity of the primers were confirmed by gel electrophoresis and sequencing. SAND Ct values in no reverse-transcriptase controls were confirmed to be at least 5 Ct values above the respective experimental sample, indicating minimal genomic DNA contamination.
C. roseus var. Little Bright Eye seeds (NESeeds, 0.8 g) were sterilized by submersion in 4% Plant Preservative Mixture (PPM) for 18 hours in the dark. The PPM was then decanted, and the seeds were spread on full-strength Gamborg's media (3.1 g/L Gamborg's basal salts, 1× Gamborg's vitamins, and 6% micropropagation agar type 1, Phytotechnology Laboratory) inside a sterile Magenta™ Plant Culture Box (Sigma) for germination. Seeds were germinated in the dark at 27° C. for 5 days until the radicle of the seedling had just emerged. A 100 mM stock solution of paclobutrazol (PAC, PhytoTechnology Laboratories) was prepared with DMSO as the solvent, filter-sterilized, and stored at −20° C. until use. A final concentration of 1 μM PAC or an equivalent amount of DMSO (mock) was added to Gamborg's media after autoclaving. After germination, seedlings were sterilely transferred to a new Magenta™ Box containing Gamborg's media containing 1 μM PAC or DMSO. Seedlings were maintained in the dark at 27° C. for 4 days, and then were harvested by placing 3 whole seedlings in a 2 mL screw cap tube containing ten 3 mm glass beads for each biological replicate, flash-freezing in liquid nitrogen, and storing at −80° C. until ready for RNA extraction and qPCR analysis.

Take `CC(C)(C)[C@@H](O)[C@@H](Cc1ccc(Cl)cc1)n1cncn1` (racemic) [PAC, paclobutrazol]: in assay [1], the CrDELLA1 expression result is “significantly decreased expression” and the CrDELLA2 expression entry is reported as “significantly decreased expression”. Further, the “activation of CrLHCB2.2 expression” value in the assay with CrLHCB2.2 is recorded as > 2 fold. Moreover, the seedling height entry in the assay on C. roseus seedlings was “significant decrease”. Besides, in assay [2], the D4H gene expression result is recorded as “significant decrease” and the T16H2 gene expression result was “no effect”. For the same compound, in assay [2] (not statistically significant), the “activation of DAT gene expression” value is “approximately 50%”, the “activation of NMT gene expression” value is “approximately 50%”, the “activation of T3O gene expression” value is on record as “approximately 50%” and the “activation of T3R gene expression” value was “approximately 50%”. Moreover, in assay [2] (statistically significant), the “activation of 16OMT gene expression” value is “approximately 50%”.

Source of the values: patent US20250304985A1, “Genetically Engineered Plants for Increased Production of Vindoline” (Northeastern University, priority 2022, published 2025).
